Data published in patent US20100152129A1 (priority 2008, published 2010).
Read-outs that look alike come from different tables or passages of the source.

Tests used:
[1] = tested on: Panc-1 cells; assay: Cell cycle analysis by DNA content (propidium iodide, flow cytometry); assay type: cell-based; settings: control 5.5%
Method: Understanding the status of cells cycles G1, S, G2 and M is indicative of the cytotoxic effect including apoptosis and DNA damage of anticancer drugs. In the current study FACS was used to measure the cell cycle stages in Panc 1 cells after exposure to anticancer drugs including drug combination. The synergistic effect of Gemcitabine with […]-00 on Panc-1 cancer cells was analyzed using propidium iodide based cell cycle analysis where total population of cells was sorted as sub G0, G1, S and G2/M populations according to total fluorescent intensity. […]-00 at a final concentration of 60 nM, 240 nM and 480 nM and Gemcitabine at a final concentration of 1 nM, 3 nM and 10 nM were analyzed in single dose and in all possible combinations of the dose range for the Gemcitabine and […]-00. Panc-1 cells were treated with Gemcitabine for 0 to 24 hrs. After 24 hrs the cells were washed twice with plain MEM. Fresh MEM with 10% serum (2 mL/well) was added to the wells, followed by treatment with […]-00 for 24 hrs to 96 hrs. After 96 hrs the treated cells were harvested, fixed, stained with propidium iodide and analyzed for specific cell arrest using DNA content analysis by flow cytometry. Adherent cells were trypsinized and washed with PBS or HBSS without Ca++ and Mg++ containing EDTA pH 8.0 and BSA. They were further isolated, centrifuged and total number of cells were counted and recorded. […]

[2] = tested on: Panc-1 cells; assay: CCK-8 based cytotoxicity assay; assay type: cell-based; settings: Gem 10 nM
Text: CCK-8 based cytotoxicity assay is a sensitive nonradioactive colorimetric assay for determining the number of viable cells in cell proliferation and cytotoxicity assays. WST-8 (2-(2-methoxy-4-nitrophenyl)-3-(4-nitrophenyl)-5-(2,4-disulfophenyl)-2H tetrazolium, monosodium salt) is bioreduced by cellular dehydrogenases to an orange formazan product that is soluble in tissue culture medium. The amount of formazan produced is directly proportional to the number of living cells.
Test System: The Panc-1 cell line was procured from ATCC (American Tissue type Culture Collection USA, catalog number: CRL-1469) and the frozen vial was stored in liquid nitrogen container.
Panc-1 cells were seeded at a density of 3000 cells/well in a 96 well plate and allowed to recover for 24 hrs in a CO2 incubator at 37° C. […] The final DMSO concentration was 0.5% in wells. Plates were incubated for 24, 48, and 72 hrs. At the end of incubation CCK-8 was added and kept at 37° C. for 3 hrs following which absorbance was measured at 450 nm.

[3] = tested on: Panc1 cells; settings: human

Row | SMILES | population of cells in sub G0 (apoptotic cells) ([1]; 1 nM alone) [%] | % Cytotoxicity ([2]; 24 hrs) [%] | % Cytotoxicity ([2]; 48 hrs) [%] | % Cytotoxicity ([2]; 72 hrs) [%] | % Cytotoxicity ([2]; 72 hrs, listed as Gem) [%] | % Cytotoxicity in Panc1 cells ([3]; 6 h) [%] | % Cytotoxicity in Panc1 cells ([3]; 16 h) [%] | % Cytotoxicity in Panc1 cells ([3]; 36 h) [%] | population of cells in sub G0 (apoptotic cells) ([1]; 60 nM alone) [%]
1 | Nc1ccn([C@@H]2O[C@H](CO)[C@@H](O)C2(F)F)c(=O)n1 [Gemcitabine, 2′, 2′-difluorodeoxycytidine] | 16.85 | 21.997 | 27.571 | 31.47 | 31.471 | 2.31 | 6.54 | 7.23 | 
2 | CN1CC[C@@H](c2c(O)cc(O)c3c(=O)cc(-c4ccccc4Cl)oc23)[C@@H]1CO.Cl (relative stereo) [P276-00, (+)-trans-2-(2-Chloro-phenyl)-5,7-dihydroxy-8-(2-hydroxy-methyl-1-methyl-pyrrolidin-3-y1)-chromen-4-one hydrochloride] |  |  |  |  |  |  |  |  | 17.6
